Results published in patent US12258423B2, “Stapled and stitched polypeptides and uses thereof” (President and Fellows of Harvard College, priority 2013, dated 2025).

Experiment: Circular dichroism (CD) spectroscopy of peptide helicity
Conditions: unlabeled peptide, 10 mM sodium phosphate pH 7.0, FIG. 11D
Method: Circular Dichroism (CD) Spectroscopy: CD spectra (FIGS. 11A-11D) were obtained using unlabeled peptides in 10 mM sodium phosphate pH 7.0 buffer. The raw data has been converted to the concentration-independent unit of molar ellipticity. α-Helices typically show dual minima at approximately 208 nm and 222 nm and a maximum at approximately 192 nm.

With CC(=O)N[C@H](C(=O)N[C@@H](CO)C(=O)N[C@@H](Cc1ccccc1)C(=O)N[C@]12CCN(C1)C(=O)OCCCCOC(=O)N1CC[C@@](C(N)=O)(C1)NC(=O)[C@H](CC(C)C)NC(=O)[C@H](CC(C)C)NC(=O)[C@H](C)NC(=O)[C@H](Cc1[nH]cc3ccccc13)NC(=O)[C@H](Cc1ccc(O)cc1)NC(=O)[C@H](CCC(=O)O)NC2=O)C(C)O (single isomer, unassigned) [Ac-PM2 PyrR/PyrS Alloc-Stapled] as the compound, how does the “α-helical character (CD spectrum)” value read?
Its value is “a-helical”.
